Results taken from US9096632B2, “Modulator of activity of adenylate cyclase” (Public University Corporation Yokohama City University, priority 2010, dated 2015).

Assay: Water solubility / hydrophilicity (stock solutions in pure water)
Type: physicochemical
Details: in words
Method: The thus synthesized position 2-substituted derivative (V2E), position 3-substituted derivative (V3E) and position 5-substituted derivative (V5E) were dissolved in pure water to give a concentration of 10 mM, to thereby prepare stock solutions. Vidarabine was dissolved in 100% dimethylsulfoxide to thereby prepare a 10 mM stock solution.
The newly synthesized three vidarabine derivatives (FIG. 1) were dissolved in pure water to thereby prepare 10 mM stock solutions. Since vidarabine infusion of about 2 mM is used in clinical scenes as an antiherpes therapeutic (Arasena-A for intravenous infusion; Mochida Pharmaceutical Co., Ltd.), it was possible to prepare solutions at concentrations about 5 times higher than that of the infusion. In the present study, vidarabine was dissolved in 100% DMSO to prepare a 10 mM stock solution.

For CN(C)CC(=O)OC1C(O)C(CO)OC1n1cnc2c(N)ncnc21 (stereo not shown) [V2E, 2-O—(N,N-Dimethylglycyl)Vidarabine], the hydrophilicity was “highly hydrophilic”.
